In patent US11427606B2, “Azithromycin derivatives containing a phosphonium ion as anticancer agents” (Rising Tide Foundation, priority 2017, dated 2022):

Test system: MDA-231 cancer cells
Assay: Inhibition of proliferation assay: cell confluence (IncuCyte imaging)
Assay type: cell-based
Conditions: compound at 10 uM; MDA-231 cells; IncuCyte images every 3 h over 4-5 d; relative confluence normalised to time zero
Summary of the method: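 MDA-231 cancer cells from ATCC were grown in DMEM with 10% FBS, 2 mM Glutamax, 1 mM NEAA and 1 mM sodium pyruvate. An IncuCyte Live Cell Imaging microscope with a 10× objective imaged one field per well every 3 h for 4-5 d. Its built-in algorithm computed percent confluence as a proliferation surrogate, and values were normalised to each sample's time-zero value.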

Row | SMILES | % Confluence [%]
1 | CC[C@H]1OC(=O)[C@H](C)[C@@H](O[C@H]2C[C@@](C)(OC)[C@@H](O)[C@H](C)O2)[C@H](C)[C@@H](O[C@@H]2O[C@H](C)C[C@H](N(C)C)[C@H]2O)[C@](C)(O)C[C@@H](C)CN(C(=O)CCCCCCCCCCC[P+](c2ccccc2)(c2ccccc2)c2cnn(C)c2)[C@H](C)[C@@H](O)[C@]1(C)O.[Cl-] [Example 28, {12-[(2R,3S,4R,5R,8R,10R,11R,12S,13S,14R)-11-{[(2S,3R,4S,6R)-4-(dimethylamino)-3-hydroxy-6-methyloxan-2-yl]oxy}-2-ethyl-3,4,10-trihydroxy-13-{[(2R,4R,5S,6S)-5-hydroxy-4-methoxy-4,6-dimethyloxan-2-yl]oxy}-3,5,8,10,12,14-hexamethyl-15-oxo-1-oxa-6-azacyclopentadecan-6-yl]-12-oxododecyl}(1-methyl-1H-pyrazol-4-yl)diphenylphosphonium chloride] | 16
2 | CC[C@H]1OC(=O)[C@H](C)[C@@H](O[C@H]2C[C@@](C)(OC)[C@@H](O)[C@H](C)O2)[C@H](C)[C@@H](O[C@@H]2O[C@H](C)C[C@H](N(C)C)[C@H]2O)[C@](C)(O)C[C@@H](C)CN(C(=O)CCCCCCCCCCC[PH](c2cc(C)cc(C)c2)(c2cc(C)cc(C)c2)c2cc(C)cc(C)c2)[C@H](C)[C@@H](O)[C@]1(C)O [Example 29, {12-[(2R,3S,4R,5R,8R,10R,11R,12S,13S,14R)-11-{[(2S,3R,4S,6R)-4-(dimethylamino)-3-hydroxy-6-methyloxan-2-yl]oxy}-2-ethyl-3,4,10-trihydroxy-13-{[(2R,4R,5S,6S)-5-hydroxy-4-methoxy-4,6-dimethyloxan-2-yl]oxy}-3,5,8,10,12,14-hexamethyl-15-oxo-1-oxa-6-azacyclopentadecan-6-yl]-12-oxododecyl}tris(3,5-dimethylphenyl)phosphonium chloride] | 4.6
3 | CC[C@H]1OC(=O)[C@H](C)[C@@H](O[C@H]2C[C@@](C)(OC)[C@@H](O)[C@H](C)O2)[C@H](C)[C@@H](O[C@@H]2O[C@H](C)C[C@H](N(C)C)[C@H]2O)[C@](C)(O)C[C@@H](C)CN(C(=O)CCCCCCCCCCC[PH](c2cccc(C)c2)(c2cccc(C)c2)c2cccc(C)c2)[C@H](C)[C@@H](O)[C@]1(C)O [Example 30, {12-[(2R,3S,4R,5R,8R,10R,11R,12S,13S,14R)-11-{[(2S,3R,4S,6R)-4-(dimethylamino)-3-hydroxy-6-methyloxan-2-yl]oxy}-2-ethyl-3,4,10-trihydroxy-13-{[(2R,4R,5S,6S)-5-hydroxy-4-methoxy-4,6-dimethyloxan-2-yl]oxy}-3,5,8,10,12,14-hexamethyl-15-oxo-1-oxa-6-azacyclopentadecan-6-yl]-12-oxododecyl}tris(3-methylphenyl)phosphonium chloride] | 4.4
4 | CC[C@H]1OC(=O)[C@H](C)[C@@H](O[C@H]2C[C@@](C)(OC)[C@@H](O)[C@H](C)O2)[C@H](C)[C@@H](O[C@@H]2O[C@H](C)C[C@H](N(C)C)[C@H]2O)[C@](C)(O)C[C@@H](C)CN(C(=O)CCCCCCCCCCC[PH](c2ccccc2)(c2ccccc2)C2COC2)[C@H](C)[C@@H](O)[C@]1(C)O [Example 32, {12-[(2R,3S,4R,5R,8R,10R,11R,12S,13S,14R)-11-{[(2S,3R,4S,6R)-4-(dimethylamino)-3-hydroxy-6-methyloxan-2-yl]oxy}-2-ethyl-3,4,10-trihydroxy-13-{[(2R,4R,5S,6S)-5-hydroxy-4-methoxy-4,6-dimethyloxan-2-yl]oxy}-3,5,8,10,12,14-hexamethyl-15-oxo-1-oxa-6-azacyclopentadecan-6-yl]-12-oxododecyl}(oxetan-3-yl)diphenylphosphonium chloride] | 129
